Source: US12679824B2 (Hoffmann-La Roche Inc., priority 2020, dated 2026)

Test system: Acinetobacter baumannii ATCC17961
Assay: 90% Growth Inhibitory Concentration (IC90) determination, antimicrobial susceptibility testing
Assay type: cell-based
Conditions: Acinetobacter baumannii ATCC17961; Iso-Sensitest broth; growth by optical density at 600 nm over 16h; concentration inhibiting 90% of the growth; read-out: ATCC 17961 IC90
Procedure, shortened: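 Broth microdilution in Iso-Sensitest medium, compounds twofold diluted (e.g. 50–0.097 μM final), inoculum ~5×10^(5) CFU/ml, 35±2° C. OD600 was read every 20 min over 16 h. IC90 was derived from growth inhibition during logarithmic growth.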

Row | IC90 | Structure (SMILES)
1 | 630 nM | Cn1c(-c2cn(-c3ccc(N)cn3)nc2C(F)(F)F)cnc1C(=O)Nc1ccc(C(=O)N[C@H]2C[C@@H](NC(=O)[C@@H]3C[C@@H](O)CN3)C2)c(Cl)c1 (stereo in doubt) [Example Z42, 5-[1-(5-amino-2-pyridyl)-3-(trifluoromethyl)pyrazol-4-yl]-N-[3-chloro-4-[cis-[3-[[(2S,4R)-4-hydroxyprolyl]amino]cyclobutyl]carbamoyl]phenyl]-1-methyl-imidazole-2-carboxamide]

Same assay, conditions: Acinetobacter baumannii, ATCC17961, 16 h, Acinetobacter baumannii ATCC17961; Iso-Sensitest broth; growth by optical density at 600 nm over 16h; concentration inhibiting 90% of the growth; read-out: ATCC 17961 IC90

Row | IC90 | Structure (SMILES)
2 | 340 nM | Cc1cc(-n2cc(-c3cnc(C(=O)Nc4ccc(C(=O)N5CCN(C(=O)C6CCNCC6)CC5)c(Cl)c4)n3C)c(C(F)(F)F)n2)ncc1N [Example Z82, 5-[1-(5-amino-4-methyl-2-pyridyl)-3-(trifluoromethyl)pyrazol-4-yl]-N-[3-chloro-4-[4-(piperidine-4-carbonyl)piperazine-1-carbonyl]phenyl]-1-methyl-imidazole-2-carboxamide]
3 | 500 nM | CN(C)c1ccnc(-n2cc(-c3cnc(C(=O)Nc4ccc(C(=O)N5CCN(C(=O)C6CCNCC6)CC5)c(Cl)c4)n3C)c(C(F)(F)F)n2)n1 [Example A17, N-[3-chloro-4-[4-(piperidine-4-carbonyl)piperazine-1-carbonyl]phenyl]-5-[1-[4-(dimethylamino)pyrimidin-2-yl]-3-(trifluoromethyl)pyrazol-4-yl]-1-methyl-imidazole-2-carboxamide]
4 | 440 nM | CC[C@H]1CNCCN1C(=O)c1ccc(NC(=O)c2ncc(-c3cn(-c4ccc(N)cn4)nc3C(F)(F)F)n2C)cc1Cl [Example Z64, 5-[1-(5-amino-2-pyridyl)-3-(trifluoromethyl)pyrazol-4-yl]-N-[3-chloro-4-[(2S)-2-ethylpiperazine-1-carbonyl]phenyl]-1-methyl-imidazole-2-carboxamide]
5 | 2000 nM | CN1CCC(C(=O)N2CCN(C(=O)c3ccc(NC(=O)c4ncc(-c5cn(-c6ccc(N)cn6)nc5C#N)n4C)cc3Cl)CC2)CC1 [Example C11, 5-[1-(5-amino-2-pyridyl)-3-cyano-pyrazol-4-yl]-N-[3-chloro-4-[4-(1-methylpiperidine-4-carbonyl)piperazine-1-carbonyl]phenyl]-1-methyl-imidazole-2-carboxamide]
6 | 590 nM | Cn1c(-c2cn(-c3nccc(N)n3)nc2C(F)(F)F)cnc1C(=O)Nc1ccc(C(=O)N2CCN(C(=O)C3CCNCC3)CC2)c(Cl)c1 [Example A15, 5-[1-(4-aminopyrimidin-2-yl)-3-(trifluoromethyl)pyrazol-4-yl]-N-[3-chloro-4-[4-(piperidine-4-carbonyl)piperazine-1-carbonyl]phenyl]-1-methyl-imidazole-2-carboxamide]
7 | 830 nM | Cn1c(-c2cn(-c3ncccc3C(F)(F)F)nc2C(F)(F)F)cnc1C(=O)Nc1ccc(C(=O)N2CCN(C(=O)C3CCNCC3)CC2)c(Cl)c1 [Example A10, N-[3-chloro-4-[4-(piperidine-4-carbonyl)piperazine-1-carbonyl]phenyl]-1-methyl-5-[3-(trifluoromethyl)-1-[3-(trifluoromethyl)-2-pyridyl]pyrazol-4-yl]imidazole-2-carboxamide]
8 | 1310 nM | Cn1c(-c2cn(-c3ccc(N)cn3)nc2C(F)(F)F)cnc1C(=O)Nc1ccc(C(=O)N2CC3CNC3C2)c(Cl)c1 (stereo not shown) [Example Z59, 5-[1-(5-amino-2-pyridyl)-3-(trifluoromethyl)pyrazol-4-yl]-N-[3-chloro-4-(3,6-diazabicyclo[3.2.0]heptane-3-carbonyl)phenyl]-1-methyl-imidazole-2-carboxamide]
9 | 310 nM | Cn1c(-c2cn(-c3ncc(N)cc3F)nc2C(F)(F)F)cnc1C(=O)Nc1ccc(C(=O)N2CCN(C(=O)C3CCNCC3)CC2)c(Cl)c1 [Example Z71, 5-[1-(5-amino-3-fluoro-2-pyridyl)-3-(trifluoromethyl)pyrazol-4-yl]-N-[3-chloro-4-[4-(piperidine-4-carbonyl)piperazine-1-carbonyl]phenyl]-1-methyl-imidazole-2-carboxamide]
10 | 170 nM | Cn1c(-c2cn(-c3cc(N)c([N+](=O)[O-])cn3)nc2C(F)(F)F)cnc1C(=O)Nc1ccc(C(=O)N2CCN(C(=O)C3CCNCC3)CC2)c(Cl)c1 [Example Z85, 5-[1-(4-amino-5-nitro-2-pyridyl)-3-(trifluoromethyl)pyrazol-4-yl]-N-[3-chloro-4-[4-(piperidine-4-carbonyl)piperazine-1-carbonyl]phenyl]-1-methyl-imidazole-2-carboxamide]
11 | 480 nM | CN(C)c1ccc(-n2cc(-c3cnc(C(=O)Nc4ccc(C(=O)N5CCN(C(=O)C6CCNCC6)CC5)c(Cl)c4)n3C)c(C(F)(F)F)n2)nn1 [Example B3, N-[3-chloro-4-[4-(piperidine-4-carbonyl)piperazine-1-carbonyl]phenyl]-5-[1-[6-(dimethylamino)pyridazin-3-yl]-3-(trifluoromethyl)pyrazol-4-yl]-1-methyl-imidazole-2-carboxamide]
12 | 480 nM | Cn1c(-c2cn(-c3cnccn3)nc2C(F)(F)F)cnc1C(=O)Nc1ccc(C(=O)N2CCN(C(=O)C3CCNCC3)CC2)c(Cl)c1 [Example A20, N-[3-chloro-4-[4-(piperidine-4-carbonyl)piperazine-1-carbonyl]phenyl]-1-methyl-5-[1-pyrazin-2-yl-3-(trifluoromethyl)pyrazol-4-yl]imidazole-2-carboxamide]
13 | 790 nM | Cn1c(-c2cn(-c3ccc([N+](=O)[O-])cn3)nc2C(F)(F)F)cnc1C(=O)Nc1ccc(C(=O)N2CCN(C(=O)[C@H]3NCC[C@@H]3O)CC2)c(Cl)c1 [Example C17, N-[3-chloro-4-[4-[(2S,3S)-3-hydroxypyrrolidine-2-carbonyl]piperazine-1-carbonyl]phenyl]-1-methyl-5-[1-(5-nitro-2-pyridyl)-3-(trifluoromethyl)pyrazol-4-yl]imidazole-2-carboxamide]
14 | 100 nM | Cn1c(-c2cn(-c3ccc(NCCN)cn3)nc2C(F)(F)F)cnc1C(=O)Nc1ccc(C(=O)N2CCN(C(=O)C3CCNCC3)CC2)c(Cl)c1 [Example Z89, 5-[1-[5-(2-aminoethylamino)-2-pyridyl]-3-(trifluoromethyl)pyrazol-4-yl]-N-[3-chloro-4-(4-isonipecotoylpiperazine-1-carbonyl)phenyl]-1-methyl-imidazole-2-carboxamide]
15 | 930 nM | Cn1c(-c2cn(-c3ccc(N)cn3)nc2C(F)(F)F)cnc1C(=O)Nc1ccc(C(=O)NC2(CN)CC2)c(Cl)c1 [Example Z6, N-[4-[[1-(aminomethyl)cyclopropyl]carbamoyl]-3-chloro-phenyl]-5-[1-(5-amino-2-pyridyl)-3-(trifluoromethyl)pyrazol-4-yl]-1-methyl-imidazole-2-carboxamide]
16 | 270 nM | CN(C(=O)c1ccc(NC(=O)c2ncc(-c3cn(-c4ccc(N)cn4)nc3C(F)(F)F)n2C)cc1Cl)C1CCN(C(=O)[C@@H]2C[C@@H](O)CN2)CC1 [Example Z35, 5-[1-(5-amino-2-pyridyl)-3-(trifluoromethyl)pyrazol-4-yl]-N-[3-chloro-4-[[1-[(2S,4R)-4-hydroxyprolyl]-4-piperidyl]-methyl-carbamoyl]phenyl]-1-methyl-imidazole-2-carboxamide]

Row | Structure (SMILES) | IC90
17 | CCN(CC)C(=O)c1ccc(NC(=O)c2ncc(-c3cn(-c4ccc(N)cn4)nc3C(F)(F)F)n2C)cc1Cl [Example Z76, 5-[1-(5-amino-2-pyridyl)-3-(trifluoromethyl)pyrazol-4-yl]-N-[3-chloro-4-(diethylcarbamoyl)phenyl]-1-methyl-imidazole-2-carboxamide] | 1140 nM
18 | Cn1c(-c2cn(-c3ccc(N)cn3)nc2C(F)(F)F)cnc1C(=O)Nc1ccc(C(=O)N2C3CNCC2C3)c(Cl)c1 [Example Z55, 5-[1-(5-amino-2-pyridyl)-3-(trifluoromethyl)pyrazol-4-yl]-N-[3-chloro-4-(3,6-diazabicyclo[3.1.1]heptane-6-carbonyl)phenyl]-1-methyl-imidazole-2-carboxamide] | 340 nM

Same assay, conditions: Acinetobacter baumannii, ATCC17961, 16 h, read-out: ATCC 17961 IC90

Row | Structure (SMILES) | IC90
19 | Cn1c(-c2cn(-c3ccc(N)cn3)nc2C(F)(F)F)cnc1C(=O)Nc1ccc(C(=O)N2CCC(CNC(=O)[C@@H]3C[C@@H](O)CN3)CC2)c(Cl)c1 [Example Z45, 5-[1-(5-amino-2-pyridyl)-3-(trifluoromethyl)pyrazol-4-yl]-N-[3-chloro-4-[4-[[[(2S,4R)-4-hydroxyprolyl]amino]methyl]piperidine-1-carbonyl]phenyl]-1-methyl-imidazole-2-carboxamide] | 650 nM
20 | COCCn1cc(-n2cc(-c3cnc(C(=O)Nc4ccc(C(=O)N5CCN(C(=O)C6CCNCC6)CC5)c(Cl)c4)n3C)c(C(F)(F)F)n2)cn1 [Example E1, N-[3-chloro-4-[4-(piperidine-4-carbonyl)piperazine-1-carbonyl]phenyl]-5-[1-[1-(2-methoxyethyl)pyrazol-4-yl]-3-(trifluoromethyl)pyrazol-4-yl]-1-methyl-imidazole-2-carboxamide] | 880 nM
21 | Cn1c(-c2cn(-c3ccc(N)cn3)nc2C(F)(F)F)cnc1C(=O)Nc1ccc(C(=O)NC23CC(NC(=O)[C@@H]4C[C@@H](O)CN4)(C2)C3)c(Cl)c1 [Example Z47, 5-[1-(5-amino-2-pyridyl)-3-(trifluoromethyl)pyrazol-4-yl]-N-[3-chloro-4-[[3-[[(2S,4R)-4-hydroxyprolyl]amino]-1-bicyclo[1.1.1]pentanyl]carbamoyl]phenyl]-1-methyl-imidazole-2-carboxamide] | 580 nM
22 | Cn1c(-c2cn(-c3ccc(N)cn3)nc2C(F)(F)F)cnc1C(=O)Nc1ccc(C(=O)N2CCC(C(=O)N3CCNCC3)CC2)c(Cl)c1 [Example H1, 5-[1-(5-Amino-2-pyridyl)-3-(trifluoromethyl)pyrazol-4-yl]-N-[3-chloro-4-[4-(piperazine-1-carbonyl)piperidine-1-carbonyl]phenyl]-1-methyl-imidazole-2-carboxamide] | 480 nM
